Source: PMC8885691, “Leveraging the multivalent p53 peptide-MdmX interaction to guide the improvement of small molecule inhibitors” (Nature Communications, 2022)
Where no end group is shown, it is not given here.

Experiments:
N-MdmX = biological target: T1, N-MdmX (Homo sapiens, UniProt O15151); assay: Isothermal titration calorimetry (ITC) assay
T1 sequence (O15151 22-110): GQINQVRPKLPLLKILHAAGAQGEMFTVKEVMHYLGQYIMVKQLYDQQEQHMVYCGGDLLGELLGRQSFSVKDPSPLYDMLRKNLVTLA
Protocol: The protein−ligand interactions were characterized using a model ITC-200 isothermal titration microcalorimeter (Malvern, USA) at 25 °C. A typical experiment included the injection of 19 aliquots (2.0 μL each) containing an ~0.2 mM ligand solution into an ~10–20 μM protein solution in the ITC cell (volume of ∼200 μL). Titrations were performed with a stirring speed of 750 rpm and a spacing time of 120 s. A control experiment was run by injecting a ligand solution into buffer instead of a protein solution in the cell. Before data analysis, the control values were subtracted from the experimental data. The binding isotherms were integrated to give the enthalpy change (ΔH) plotted as a function of the molar ratio of the ligand. When necessary, prior to the integration procedures, the baseline was manually adjusted to minimize the background noise. The Origin 7.0-based software was used for data analysis with the one-set-of-binding-sites model. The disassociation constant of Kd was determined from the slope of the central linear part of the fractional saturation curve. The Gibbs free energy change (ΔG) and the entropy change (ΔS) were calculated on the basis of the following equations: ΔG =−RT ln Kd = ΔH − TΔS, where ΔH was derived from the original ΔH/molar ratio plots.

[1] = tested on: HCT116, RKO, and H460a cells; assay: Real-time RT-qPCR of p21 and p53 genes in cancer cells with wild-type p53; type: cell-based; conditions: H203 for 8 h
Protocol: […]. […] […]. Total RNAs were extracted using a Trizol protocol with RNeasy® Mini kit from Qiagen (TX, USA). The concentration of RNAs was measured with Nanodrop-2000c. Real-time qPCR was performed with a BaldStar TaqMan One-Step RT-qPCR Kit from Biorab (Beijing, China) on a BioRad CFX96 qPCR instrument (CA, USA). The primers and probes for qPCR were designed using Primer Express 3.0 software (Applied Biosystems, USA). […]. TaqMan probes were labeled with 5′-FAM and 3′-TAMRA. All primers and probes were synthesized by GenScript (Nanjing, China). Samples were analyzed in triplicate and normalized to the control.

Compound | Kd (N-MdmX) | transcription of the p53 gene [1] | transcription of p21 ([1]; all three cell lines)
WKLLPEN [p53p^ΔF19] | 20.1 ± 3.25 µM |  | 
O=C1CN(C(=O)N2C(c3ccc4c(c3)N(c3ccccc3)C(=O)CNC4=O)=N[C@@H](c3ccc(Cl)cc3)[C@H]2c2ccc(Cl)cc2)CCN1 [H203] |  | unaffected | increased in a dose-dependent manner
